What was measured:
TNIK = TNIK (Homo sapiens, UniProt Q9UKE5); experiment: Enzymatic kinase assay, TNIK; format: biochemical
Experimental: [Worded in the source for another target; this target is reported under the same test.] (§1) The anti-JNK3 activity of compounds prepared as in the previous examples was evaluated using a Reaction Biology Corp. HotSpot Kinase Assay. Base reaction buffer was 20 mM HEPES (4-(2-hydroxyethyl)-1-piperazineethanesulfonic acid) at pH 7.5 with 10 mM MgCl2, 1 mM EGTA (ethylene glycol-bis(β-aminoethyl ether)-N,N,N′,N′-tetracetic acid), 0.02% Brij™ 35, 0.02 mg/mL BSA (bovine serum albumin), 0.1 mM Na3VO4, 2 mM DTT (dithiothreitol), and 1% DMSO. Required cofactors were added individually to each kinase reaction.
(§2) Kinase activity was evaluated as follows: • (1) Substrate was dissolved in freshly prepared reaction buffer • (2) Any required cofactors were dissolved in the substrate solution • (3) Kinase was added to the substrate solution followed by gentle mixing • (4) Compounds to be tested dissolved in 100% DMSO were added to the kinase reaction mixture using an Echo550 acoustic liquid handler (Labcyte, San Jose, CA) and incubated for 20 minutes at room temperature • (5) ^33P-ATP was added to the reaction mixture to initiate the kinase reaction • (6) The reaction mixture was incubated for 2 hours at room temperature • (7) Kinase activity was detected by spotting the kinase reaction on Whatman P81 paper, exposing and developing the images using a phosphorimager, and quantifying counts to determine kinase activity

MINK1 = MINK1 (Homo sapiens, UniProt Q8N4C8); experiment: Enzymatic kinase assay, MINK1; format: biochemical
p38a = target: T1, p38a (Homo sapiens, UniProt Q16539); experiment: HotSpot Kinase Assay, P38a; format: biochemical; details: HotSpot radiometric assay, 33P-ATP
T1 construct: purchased Reaction Biology Corp
T1 sequence (Q16539 whole entry): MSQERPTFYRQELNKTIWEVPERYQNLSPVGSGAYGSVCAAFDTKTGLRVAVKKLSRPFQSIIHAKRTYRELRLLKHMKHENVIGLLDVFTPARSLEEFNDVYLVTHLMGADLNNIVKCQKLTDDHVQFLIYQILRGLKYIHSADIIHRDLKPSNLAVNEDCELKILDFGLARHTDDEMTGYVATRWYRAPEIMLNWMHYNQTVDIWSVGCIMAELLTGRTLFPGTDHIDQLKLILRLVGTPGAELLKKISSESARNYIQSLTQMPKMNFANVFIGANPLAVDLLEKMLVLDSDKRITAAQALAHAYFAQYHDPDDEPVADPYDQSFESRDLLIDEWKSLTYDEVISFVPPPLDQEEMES
Method in brief: (§3)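 Radiometric HotSpot kinase assay in 20 mM HEPES pH 7.5 with 10 mM MgCl2, 1 mM EGTA, 0.02% Brij 35, 0.02 mg/mL BSA, 0.1 mM Na3VO4, 2 mM DTT and 1% DMSO. Cofactors were added per kinase, with the same format for all three kinases.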

JNK3 = target: T2, JNK3 (Homo sapiens, UniProt P53779); experiment: HotSpot Kinase Assay (Reaction Biology Corp.), anti-JNK3 activity; format: biochemical; details: HotSpot radiometric assay, 33P-ATP
T2 construct: purchased Reaction Biology Corp
T2 sequence (P53779 whole entry): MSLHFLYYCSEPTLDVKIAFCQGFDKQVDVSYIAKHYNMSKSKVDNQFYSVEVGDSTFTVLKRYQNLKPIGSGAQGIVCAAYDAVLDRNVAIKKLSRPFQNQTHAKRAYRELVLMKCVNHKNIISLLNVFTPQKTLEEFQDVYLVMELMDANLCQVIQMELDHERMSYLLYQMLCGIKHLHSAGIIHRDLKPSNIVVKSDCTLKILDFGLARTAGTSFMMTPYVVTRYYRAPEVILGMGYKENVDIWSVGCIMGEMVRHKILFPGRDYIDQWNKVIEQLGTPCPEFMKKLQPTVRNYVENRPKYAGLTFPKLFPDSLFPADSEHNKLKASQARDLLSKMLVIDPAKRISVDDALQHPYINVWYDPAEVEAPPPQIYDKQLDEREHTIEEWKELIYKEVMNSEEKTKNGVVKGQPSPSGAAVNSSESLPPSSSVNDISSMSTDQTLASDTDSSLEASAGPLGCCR
Method in brief: as §3

JNK1 = target: T3, JNK1 (Homo sapiens, UniProt P45983); experiment: HotSpot Kinase Assay, JNK1; format: biochemical; details: HotSpot radiometric assay, 33P-ATP
T3 construct: purchased Reaction Biology Corp
T3 sequence (P45983 whole entry): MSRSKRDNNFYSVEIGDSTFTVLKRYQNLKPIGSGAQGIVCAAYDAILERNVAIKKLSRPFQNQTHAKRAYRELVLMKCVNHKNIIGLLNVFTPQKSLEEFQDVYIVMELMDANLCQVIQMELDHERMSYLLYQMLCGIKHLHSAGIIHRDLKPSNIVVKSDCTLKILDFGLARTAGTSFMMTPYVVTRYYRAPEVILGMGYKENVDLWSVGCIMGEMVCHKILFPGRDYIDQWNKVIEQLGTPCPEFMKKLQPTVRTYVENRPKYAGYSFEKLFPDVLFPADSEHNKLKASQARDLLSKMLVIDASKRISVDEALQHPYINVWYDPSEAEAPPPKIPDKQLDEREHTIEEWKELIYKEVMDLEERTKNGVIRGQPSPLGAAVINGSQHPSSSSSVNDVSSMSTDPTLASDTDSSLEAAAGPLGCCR
Method in brief: as §3

HGK = HGK (Homo sapiens, UniProt O95819); experiment: Enzymatic kinase assay, HGK; format: biochemical
Sequence of HGK (O95819 whole entry): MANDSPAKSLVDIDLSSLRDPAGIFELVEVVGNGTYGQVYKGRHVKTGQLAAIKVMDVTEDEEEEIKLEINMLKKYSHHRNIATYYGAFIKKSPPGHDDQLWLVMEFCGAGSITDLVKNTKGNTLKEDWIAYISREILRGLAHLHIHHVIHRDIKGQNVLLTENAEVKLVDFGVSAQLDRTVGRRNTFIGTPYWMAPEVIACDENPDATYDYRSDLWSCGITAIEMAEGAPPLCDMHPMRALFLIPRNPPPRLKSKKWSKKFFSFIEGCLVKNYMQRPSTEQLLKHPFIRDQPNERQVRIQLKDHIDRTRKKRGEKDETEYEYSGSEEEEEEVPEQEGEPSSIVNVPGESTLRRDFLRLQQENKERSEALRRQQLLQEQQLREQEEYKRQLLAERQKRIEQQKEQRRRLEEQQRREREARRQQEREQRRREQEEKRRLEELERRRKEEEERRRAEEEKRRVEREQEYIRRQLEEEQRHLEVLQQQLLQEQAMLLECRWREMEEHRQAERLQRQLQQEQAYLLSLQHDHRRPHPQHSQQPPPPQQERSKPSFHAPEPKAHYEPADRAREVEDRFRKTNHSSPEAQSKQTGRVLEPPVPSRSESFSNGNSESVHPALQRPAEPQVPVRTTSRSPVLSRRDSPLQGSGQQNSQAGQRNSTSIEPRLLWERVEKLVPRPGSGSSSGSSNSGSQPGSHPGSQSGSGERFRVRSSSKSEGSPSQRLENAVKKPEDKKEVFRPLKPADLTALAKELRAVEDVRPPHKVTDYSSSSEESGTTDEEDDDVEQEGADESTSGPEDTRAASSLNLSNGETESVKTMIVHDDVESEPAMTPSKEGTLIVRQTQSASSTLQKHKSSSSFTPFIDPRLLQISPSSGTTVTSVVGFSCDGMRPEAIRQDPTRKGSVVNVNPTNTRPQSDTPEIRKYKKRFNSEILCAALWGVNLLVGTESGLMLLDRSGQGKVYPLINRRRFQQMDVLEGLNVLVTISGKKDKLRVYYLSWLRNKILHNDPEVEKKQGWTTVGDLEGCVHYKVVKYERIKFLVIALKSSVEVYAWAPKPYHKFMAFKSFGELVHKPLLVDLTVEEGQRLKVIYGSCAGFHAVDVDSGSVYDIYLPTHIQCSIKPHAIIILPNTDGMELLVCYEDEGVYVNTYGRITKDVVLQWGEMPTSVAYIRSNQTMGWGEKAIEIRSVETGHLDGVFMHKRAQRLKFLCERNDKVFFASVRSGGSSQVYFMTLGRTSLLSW
Experimental: [Worded in the source for another target; this target is reported under the same test.] as §1, §2

DDR1 = DDR1 (Homo sapiens, UniProt Q08345); experiment: Enzymatic kinase assay, DDR1; format: biochemical
Experimental: [Worded in the source for another target; this target is reported under the same test.] as §1, §2

Abl-1 = Abl-1 (Homo sapiens, UniProt P00519); experiment: Enzymatic kinase assay, Abl-1; format: biochemical
Sequence of Abl-1 (P00519 whole entry): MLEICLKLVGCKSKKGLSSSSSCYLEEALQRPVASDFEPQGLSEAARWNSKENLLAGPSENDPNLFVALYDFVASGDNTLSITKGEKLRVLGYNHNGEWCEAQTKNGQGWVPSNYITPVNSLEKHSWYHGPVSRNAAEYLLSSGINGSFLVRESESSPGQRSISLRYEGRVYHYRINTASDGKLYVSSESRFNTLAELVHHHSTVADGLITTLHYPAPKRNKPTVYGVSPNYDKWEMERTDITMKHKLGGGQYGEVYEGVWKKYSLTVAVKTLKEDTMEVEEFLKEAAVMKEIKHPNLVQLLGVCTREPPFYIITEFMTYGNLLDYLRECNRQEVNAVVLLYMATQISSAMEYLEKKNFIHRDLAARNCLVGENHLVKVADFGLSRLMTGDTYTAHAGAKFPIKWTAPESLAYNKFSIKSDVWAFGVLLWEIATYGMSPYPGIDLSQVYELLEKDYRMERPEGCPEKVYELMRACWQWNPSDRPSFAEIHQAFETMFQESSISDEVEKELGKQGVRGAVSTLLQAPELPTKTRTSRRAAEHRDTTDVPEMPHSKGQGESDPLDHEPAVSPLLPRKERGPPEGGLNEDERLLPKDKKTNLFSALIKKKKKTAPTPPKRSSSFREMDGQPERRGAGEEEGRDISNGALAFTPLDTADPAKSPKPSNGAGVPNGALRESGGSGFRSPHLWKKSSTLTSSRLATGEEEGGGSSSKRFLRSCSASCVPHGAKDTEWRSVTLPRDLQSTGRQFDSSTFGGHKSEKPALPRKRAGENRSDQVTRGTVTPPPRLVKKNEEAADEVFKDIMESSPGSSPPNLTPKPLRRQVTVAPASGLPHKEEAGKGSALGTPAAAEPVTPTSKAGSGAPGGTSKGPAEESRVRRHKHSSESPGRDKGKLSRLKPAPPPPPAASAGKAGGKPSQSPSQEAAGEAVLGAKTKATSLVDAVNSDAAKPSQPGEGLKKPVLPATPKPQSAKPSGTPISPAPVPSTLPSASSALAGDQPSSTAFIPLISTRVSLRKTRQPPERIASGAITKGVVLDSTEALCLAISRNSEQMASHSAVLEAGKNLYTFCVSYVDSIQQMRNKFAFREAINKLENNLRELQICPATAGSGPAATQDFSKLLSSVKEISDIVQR
Experimental: [Worded in the source for another target; this target is reported under the same test.] as §1, §2

[1] = test system: c-jun phosphorylation in SH-SY5Y human neuroblastoma cell line; experiment: In Cell Western Assay, p-c-jun after TNFa; format: cell-based; details: SH-SY5Y cells, 25 ng/ml TNFa 1 hour, read-out: Phosphoryl. in SH-SY5Y
Experimental: SH-SY5Y human neuroblastoma cell line was utilized for the assay. […] Next day, cells were starved of serum for 2 hours by media replacement with serum free DMEM:F12. Cells were then pretreated with inhibitors in DMEM:F12 for 30 min, which was followed by the addition of 25 ng/ml of TNFa for 1 hour. At the end of incubation, cells were fixed with 3% paraformaldehyde for 20 min at room temperature. Following three washes with 0.1 M phosphate buffer (pH 7.0) with shaking during washes, cells were treated with Licor blocking buffer (1:1 dilution in PBS with 0.3% Triton X-100) for 1 hour on a shaker. […] Next day, cells were washed with PBS containing 0.3% Triton X-100 for 5 min each three times with shaking. […] Following three 5 min washes, cells were incubated for nuclei staining with Alexa 680 succinidimyl ester (Thermofisher cat #, A20008) at 1/40,000 dilution for 15 min with shaking and subsequent three 5 min washes. P-c-jun and nuclei signals were detected using Odyssey LiCor Infrared scanner. The p-c-jun signal of each well was normalized to the cell number using nuclei signal.

Sequence of TNIK (Q9UKE5 whole entry): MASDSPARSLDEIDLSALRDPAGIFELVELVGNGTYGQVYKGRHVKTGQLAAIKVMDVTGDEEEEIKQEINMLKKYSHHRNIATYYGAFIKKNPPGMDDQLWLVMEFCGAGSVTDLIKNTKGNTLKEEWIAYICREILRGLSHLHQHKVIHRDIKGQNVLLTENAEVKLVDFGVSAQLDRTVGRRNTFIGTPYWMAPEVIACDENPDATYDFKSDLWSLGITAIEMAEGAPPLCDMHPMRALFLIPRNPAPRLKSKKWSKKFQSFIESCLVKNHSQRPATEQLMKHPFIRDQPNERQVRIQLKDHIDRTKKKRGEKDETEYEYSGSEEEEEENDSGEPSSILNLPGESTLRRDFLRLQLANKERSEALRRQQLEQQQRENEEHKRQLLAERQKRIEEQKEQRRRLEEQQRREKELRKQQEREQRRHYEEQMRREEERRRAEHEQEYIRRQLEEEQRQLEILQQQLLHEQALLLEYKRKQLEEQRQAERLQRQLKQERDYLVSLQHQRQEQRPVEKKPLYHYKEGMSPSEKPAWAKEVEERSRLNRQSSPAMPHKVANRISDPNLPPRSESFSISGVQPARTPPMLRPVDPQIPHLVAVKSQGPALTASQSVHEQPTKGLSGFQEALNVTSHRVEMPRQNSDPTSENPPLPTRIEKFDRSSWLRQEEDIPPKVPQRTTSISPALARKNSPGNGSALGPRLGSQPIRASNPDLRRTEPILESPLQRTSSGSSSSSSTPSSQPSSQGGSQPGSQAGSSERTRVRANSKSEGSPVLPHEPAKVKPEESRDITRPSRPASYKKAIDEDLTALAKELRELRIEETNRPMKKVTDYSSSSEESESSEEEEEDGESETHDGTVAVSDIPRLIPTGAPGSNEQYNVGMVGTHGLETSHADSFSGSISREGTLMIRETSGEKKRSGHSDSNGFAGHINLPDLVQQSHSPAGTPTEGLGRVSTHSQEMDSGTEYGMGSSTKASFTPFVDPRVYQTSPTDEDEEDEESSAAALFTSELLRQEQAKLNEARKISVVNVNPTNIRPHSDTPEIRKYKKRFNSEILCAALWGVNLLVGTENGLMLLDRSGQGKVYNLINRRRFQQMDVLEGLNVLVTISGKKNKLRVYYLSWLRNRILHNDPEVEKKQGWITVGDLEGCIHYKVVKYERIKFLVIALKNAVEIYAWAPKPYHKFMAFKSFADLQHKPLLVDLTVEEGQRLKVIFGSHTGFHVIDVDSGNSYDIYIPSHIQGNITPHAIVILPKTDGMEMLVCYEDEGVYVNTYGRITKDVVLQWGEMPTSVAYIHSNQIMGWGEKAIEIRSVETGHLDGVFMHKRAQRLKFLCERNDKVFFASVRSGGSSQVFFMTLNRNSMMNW

SMILES	IC50 (TNIK)	IC50 (MINK1)	IC50 (p38a)	IC50 (JNK3)	IC50 (JNK1)	IC50 (HGK)	IC50 (DDR1)	IC50 (Abl-1)	IC50 [1]
CNC(=O)c1cc(-n2ncc3cc(Nc4c(F)cccc4OC)ccc32)cs1 [Compound 93, 4-(5-((2-fluoro-6-methoxyphenyl)amino)-1H-indazol-1-yl)-N-methylthiophene-2-carboxamide]	–	–	200 to 1000 nM	< 200 nM	> 1000 nM	–	200 to 1000 nM	–	–
CN1CCN=C1NC(=O)c1cc(-n2ncc3nc(Nc4ccccc4Cl)ccc32)cs1 [Compound 58, 4-(5-((2-chlorophenyl)amino)-1H-pyrazolo[4,3-b]pyridin-1-yl)-N-(1-methyl-4,5-dihydro-1H-imidazol-2-yl)thiophene-2-carboxamide]	< 200 nM	< 200 nM	> 1000 nM	< 200 nM	> 1000 nM	< 200 nM	< 200 nM	> 1000 nM	–
COc1cccc(Cl)c1Nc1cc2cnn(-c3csc(C(=O)NC4COC4)c3)c2nc1C [Compound 110, 4-(5-((2-chloro-6-methoxyphenyl)amino)-6-methyl-1H-pyrazolo[3,4-b]pyridin-1-yl)-N-(oxetan-3-yl)thiophene-2-carboxamide]	200 to 1000 nM	> 1000 nM	200 to 1000 nM	< 200 nM	> 1000 nM	> 1000 nM	> 1000 nM	> 1000 nM	–
CNC(=O)c1cc(-n2ncc3cc(Nc4c(Cl)cccc4OC)ncc32)cs1 [Compound 108, 4-(5-((2-chloro-6-methoxyphenyl)amino)-1H-pyrazolo[3,4-c]pyridin-1-yl)-N-methylthiophene-2-carboxamide]	< 200 nM	< 200 nM	200 to 1000 nM	< 200 nM	> 1000 nM	< 200 nM	200 to 1000 nM	> 1000 nM	–
CNC(=O)c1cc(-n2ncc3cc(Nc4ccccc4Cl)c(F)cc32)cs1 [Compound 28, 4-(5-((2-chlorophenyl)amino)-6-fluoro-1H-indazol-1-yl)-N-methylthiophene-2-carboxamide]	–	–	< 200 nM	< 200 nM	200 to 1000 nM	–	–	–	< 200 nM

Continued, values first:

IC50 (TNIK)	IC50 (MINK1)	IC50 (p38a)	IC50 (JNK3)	IC50 (JNK1)	IC50 (HGK)	IC50 (DDR1)	IC50 (Abl-1)	IC50 [1]	SMILES
< 200 nM	< 200 nM	200 to 1000 nM	< 200 nM	200 to 1000 nM	< 200 nM	–	–	–	CNC(=O)c1cc(-n2ncc3cc(Nc4cccc(C)c4Cl)ncc32)cs1 [Compound 25, 4-(5-((2-chloro-3-methylphenyl)amino)-1H-pyrazolo[3,4-c]pyridin-1-yl)-N-methylthiophene-2-carboxamide]
< 200 nM	200 to 1000 nM	200 to 1000 nM	< 200 nM	> 1000 nM	< 200 nM	< 200 nM	200 to 1000 nM	–	CNC(=O)c1cc(-n2ncc3cc(Nc4c(F)cccc4Cl)c(OC)cc32)cs1 [Compound 91, 4-(5-((2-chloro-6-fluorophenyl)amino)-6-methoxy-1H-indazol-1-yl)-N-methylthiophene-2-carboxamide]

Reference: patent US12448375B2, “Kinase inhibitors for the treatment of neurodegenerative diseases” (Ohio State Innovation Foundation, priority 2019, dated 2025)
